Measurements as given in article PMC3814616, “BRAF inhibitors suppress apoptosis through off-target inhibition of JNK signaling” (eLife, 2013).

Tests used:
Experiment in all cases: Quantitative competitive binding assay (KINOMEscan)
PAK1 = target: T1, PAK1 (Homo sapiens, UniProt Q13153); details: for remaining binding at 0.05 µM: read-out: Percent control (50 nM); for remaining binding at 0.2 µM: read-out: Percent control (200 nM); for remaining binding at 1 µM: read-out: Percent control (1000 nM); for remaining binding at 10 µM: read-out: Percent control (10 μM)
T1 construct: purchased KINOMEscan (DiscoveRx), San Diego, CA

MLK1 (MAP3K9) = target: T2, MLK1 (MAP3K9) (Homo sapiens, UniProt P80192); details: for IC50: estimated Kd, averaged pointwise estimates, transformed Hill equation, read-out: Calculated estimate of IC50; for remaining binding at 0.05 µM: read-out: Percent control (50 nM); for remaining binding at 0.2 µM: read-out: Percent control (200 nM); for remaining binding at 1 µM: read-out: Percent control (1000 nM); for remaining binding at 10 µM: read-out: Percent control (10 μM)
T2 construct: purchased KINOMEscan (DiscoveRx), San Diego, CA

MAP3K4 = target: T3, MAP3K4 (Homo sapiens, UniProt Q9Y6R4); details: for remaining binding at 0.05 µM: read-out: Percent control (50 nM); for remaining binding at 0.2 µM: read-out: Percent control (200 nM); for remaining binding at 1 µM: read-out: Percent control (1000 nM); for remaining binding at 10 µM: read-out: Percent control (10 μM)
T3 construct: purchased KINOMEscan (DiscoveRx), San Diego, CA

SRMS = SRMS (Homo sapiens, UniProt Q9H3Y6); details: for IC50: estimated Kd, averaged pointwise estimates, transformed Hill equation, read-out: Calculated estimate of IC50; for remaining binding at 0.05 µM: read-out: Percent control (50 nM); for remaining binding at 0.2 µM: read-out: Percent control (200 nM); for remaining binding at 1 µM: read-out: Percent control (1000 nM); for remaining binding at 10 µM: read-out: Percent control (10 μM)
MAP4K3 = target: T4, MAP4K3 (Homo sapiens, UniProt Q8IVH8); details: for remaining binding at 0.05 µM: read-out: Percent control (50 nM); for remaining binding at 0.2 µM: read-out: Percent control (200 nM); for remaining binding at 1 µM: read-out: Percent control (1000 nM); for remaining binding at 10 µM: read-out: Percent control (10 μM)
T4 construct: purchased KINOMEscan (DiscoveRx), San Diego, CA
T4 sequence (Q8IVH8 1-894): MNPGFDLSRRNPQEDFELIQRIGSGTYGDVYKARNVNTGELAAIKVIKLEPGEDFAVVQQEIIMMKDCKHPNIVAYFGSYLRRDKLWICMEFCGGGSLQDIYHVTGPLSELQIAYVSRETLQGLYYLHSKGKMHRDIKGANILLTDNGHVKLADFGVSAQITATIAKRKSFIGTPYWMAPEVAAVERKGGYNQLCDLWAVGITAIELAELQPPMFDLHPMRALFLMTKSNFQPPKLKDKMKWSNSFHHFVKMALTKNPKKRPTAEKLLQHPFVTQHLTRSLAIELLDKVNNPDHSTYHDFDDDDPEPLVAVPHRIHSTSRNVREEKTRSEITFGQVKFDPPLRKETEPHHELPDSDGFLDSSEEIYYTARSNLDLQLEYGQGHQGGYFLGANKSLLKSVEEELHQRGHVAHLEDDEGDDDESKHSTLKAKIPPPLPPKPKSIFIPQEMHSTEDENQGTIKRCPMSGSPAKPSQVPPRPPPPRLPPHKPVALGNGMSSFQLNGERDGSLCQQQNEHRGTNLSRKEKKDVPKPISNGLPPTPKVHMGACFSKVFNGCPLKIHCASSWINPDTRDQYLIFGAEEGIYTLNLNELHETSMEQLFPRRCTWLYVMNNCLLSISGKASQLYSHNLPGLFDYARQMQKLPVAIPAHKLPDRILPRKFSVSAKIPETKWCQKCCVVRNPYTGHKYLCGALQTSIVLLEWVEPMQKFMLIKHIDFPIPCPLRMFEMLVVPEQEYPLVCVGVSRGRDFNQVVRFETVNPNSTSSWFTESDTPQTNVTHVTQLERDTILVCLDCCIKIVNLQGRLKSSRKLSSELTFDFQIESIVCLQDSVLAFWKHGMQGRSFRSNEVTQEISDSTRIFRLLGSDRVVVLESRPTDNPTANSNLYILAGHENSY

MLK2 (MAP3K10) = target: T5, MLK2 (MAP3K10) (Homo sapiens, UniProt Q02779); details: for remaining binding at 0.05 µM: read-out: Percent control (50 nM); for remaining binding at 0.2 µM: read-out: Percent control (200 nM); for remaining binding at 10 µM: read-out: Percent control (10 μM)
T5 construct: purchased KINOMEscan (DiscoveRx), San Diego, CA

MAP3K1 = target: T6, MAP3K1 (Homo sapiens, UniProt Q13233); details: for remaining binding at 0.05 µM: read-out: Percent control (50 nM); for remaining binding at 0.2 µM: read-out: Percent control (200 nM); for remaining binding at 1 µM: read-out: Percent control (1000 nM); for remaining binding at 10 µM: read-out: Percent control (10 μM)
T6 construct: purchased KINOMEscan (DiscoveRx), San Diego, CA

TAOK1 = target: T7, TAOK1 (Homo sapiens, UniProt Q7L7X3); details: for remaining binding at 0.2 µM: read-out: Percent control (200 nM); for remaining binding at 1 µM: read-out: Percent control (1000 nM); for remaining binding at 10 µM: read-out: Percent control (10 μM)
T7 construct: purchased KINOMEscan (DiscoveRx), San Diego, CA
T7 sequence (Q7L7X3 1-1001): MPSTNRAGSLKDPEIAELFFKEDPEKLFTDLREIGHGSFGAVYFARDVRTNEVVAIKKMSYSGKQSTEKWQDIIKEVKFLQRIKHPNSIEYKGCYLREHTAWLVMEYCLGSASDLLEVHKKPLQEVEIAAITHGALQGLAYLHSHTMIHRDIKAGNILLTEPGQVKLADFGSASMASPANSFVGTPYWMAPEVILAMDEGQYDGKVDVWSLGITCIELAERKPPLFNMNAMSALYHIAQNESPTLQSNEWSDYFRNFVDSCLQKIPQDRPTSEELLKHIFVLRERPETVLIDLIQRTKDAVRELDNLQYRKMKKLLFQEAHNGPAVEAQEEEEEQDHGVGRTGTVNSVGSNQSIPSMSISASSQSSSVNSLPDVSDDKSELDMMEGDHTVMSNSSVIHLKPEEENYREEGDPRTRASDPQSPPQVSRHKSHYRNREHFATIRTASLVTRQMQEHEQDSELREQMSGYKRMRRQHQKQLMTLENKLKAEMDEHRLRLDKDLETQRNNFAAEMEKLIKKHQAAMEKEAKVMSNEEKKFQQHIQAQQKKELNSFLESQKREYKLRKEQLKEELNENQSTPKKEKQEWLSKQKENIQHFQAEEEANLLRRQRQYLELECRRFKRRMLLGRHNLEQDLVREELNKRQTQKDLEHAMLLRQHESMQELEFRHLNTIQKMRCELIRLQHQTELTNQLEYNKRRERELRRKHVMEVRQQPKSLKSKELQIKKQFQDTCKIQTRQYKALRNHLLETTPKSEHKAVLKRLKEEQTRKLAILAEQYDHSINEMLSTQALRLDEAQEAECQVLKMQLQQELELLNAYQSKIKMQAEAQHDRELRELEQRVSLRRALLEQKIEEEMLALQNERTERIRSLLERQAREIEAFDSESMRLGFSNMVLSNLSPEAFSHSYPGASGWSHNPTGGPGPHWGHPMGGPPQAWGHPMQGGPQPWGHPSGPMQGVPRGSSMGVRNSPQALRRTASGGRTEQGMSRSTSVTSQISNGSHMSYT

T6 sequence (Q13233 whole entry): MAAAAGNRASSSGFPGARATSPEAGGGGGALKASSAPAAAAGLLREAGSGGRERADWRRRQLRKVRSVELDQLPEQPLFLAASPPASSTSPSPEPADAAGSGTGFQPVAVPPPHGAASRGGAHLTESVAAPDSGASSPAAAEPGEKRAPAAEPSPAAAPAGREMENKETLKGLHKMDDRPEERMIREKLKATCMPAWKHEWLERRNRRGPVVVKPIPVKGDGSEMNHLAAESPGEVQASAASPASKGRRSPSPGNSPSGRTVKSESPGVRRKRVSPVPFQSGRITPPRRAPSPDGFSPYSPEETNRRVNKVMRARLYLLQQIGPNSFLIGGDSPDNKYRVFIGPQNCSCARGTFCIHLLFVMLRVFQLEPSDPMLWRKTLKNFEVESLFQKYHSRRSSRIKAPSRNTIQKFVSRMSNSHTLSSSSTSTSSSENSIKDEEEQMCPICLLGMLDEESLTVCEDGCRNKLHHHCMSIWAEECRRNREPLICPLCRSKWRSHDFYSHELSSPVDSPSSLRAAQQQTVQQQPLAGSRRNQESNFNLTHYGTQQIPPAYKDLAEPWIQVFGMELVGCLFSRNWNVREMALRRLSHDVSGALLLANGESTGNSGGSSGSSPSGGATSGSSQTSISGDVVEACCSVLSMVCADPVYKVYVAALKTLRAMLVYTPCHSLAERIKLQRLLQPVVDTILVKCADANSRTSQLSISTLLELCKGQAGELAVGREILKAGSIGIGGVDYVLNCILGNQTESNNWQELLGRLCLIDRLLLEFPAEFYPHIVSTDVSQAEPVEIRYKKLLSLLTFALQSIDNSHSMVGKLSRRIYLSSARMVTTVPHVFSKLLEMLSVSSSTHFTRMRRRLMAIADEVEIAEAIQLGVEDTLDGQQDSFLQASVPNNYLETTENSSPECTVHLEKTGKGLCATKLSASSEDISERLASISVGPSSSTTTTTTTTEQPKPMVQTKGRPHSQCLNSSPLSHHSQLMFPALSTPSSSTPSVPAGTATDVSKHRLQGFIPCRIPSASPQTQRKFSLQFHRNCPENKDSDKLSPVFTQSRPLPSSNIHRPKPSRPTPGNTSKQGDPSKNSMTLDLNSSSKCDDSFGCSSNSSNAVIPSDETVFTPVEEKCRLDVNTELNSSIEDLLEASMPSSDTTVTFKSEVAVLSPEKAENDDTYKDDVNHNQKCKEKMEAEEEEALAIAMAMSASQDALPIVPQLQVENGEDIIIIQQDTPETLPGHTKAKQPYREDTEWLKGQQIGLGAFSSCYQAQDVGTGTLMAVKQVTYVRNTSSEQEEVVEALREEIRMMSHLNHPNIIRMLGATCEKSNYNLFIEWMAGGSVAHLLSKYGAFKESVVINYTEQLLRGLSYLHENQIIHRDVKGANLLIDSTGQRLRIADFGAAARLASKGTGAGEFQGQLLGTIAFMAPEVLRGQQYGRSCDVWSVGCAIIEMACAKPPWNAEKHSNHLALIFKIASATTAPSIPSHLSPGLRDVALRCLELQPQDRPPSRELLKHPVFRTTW
T5 sequence (Q02779 whole entry): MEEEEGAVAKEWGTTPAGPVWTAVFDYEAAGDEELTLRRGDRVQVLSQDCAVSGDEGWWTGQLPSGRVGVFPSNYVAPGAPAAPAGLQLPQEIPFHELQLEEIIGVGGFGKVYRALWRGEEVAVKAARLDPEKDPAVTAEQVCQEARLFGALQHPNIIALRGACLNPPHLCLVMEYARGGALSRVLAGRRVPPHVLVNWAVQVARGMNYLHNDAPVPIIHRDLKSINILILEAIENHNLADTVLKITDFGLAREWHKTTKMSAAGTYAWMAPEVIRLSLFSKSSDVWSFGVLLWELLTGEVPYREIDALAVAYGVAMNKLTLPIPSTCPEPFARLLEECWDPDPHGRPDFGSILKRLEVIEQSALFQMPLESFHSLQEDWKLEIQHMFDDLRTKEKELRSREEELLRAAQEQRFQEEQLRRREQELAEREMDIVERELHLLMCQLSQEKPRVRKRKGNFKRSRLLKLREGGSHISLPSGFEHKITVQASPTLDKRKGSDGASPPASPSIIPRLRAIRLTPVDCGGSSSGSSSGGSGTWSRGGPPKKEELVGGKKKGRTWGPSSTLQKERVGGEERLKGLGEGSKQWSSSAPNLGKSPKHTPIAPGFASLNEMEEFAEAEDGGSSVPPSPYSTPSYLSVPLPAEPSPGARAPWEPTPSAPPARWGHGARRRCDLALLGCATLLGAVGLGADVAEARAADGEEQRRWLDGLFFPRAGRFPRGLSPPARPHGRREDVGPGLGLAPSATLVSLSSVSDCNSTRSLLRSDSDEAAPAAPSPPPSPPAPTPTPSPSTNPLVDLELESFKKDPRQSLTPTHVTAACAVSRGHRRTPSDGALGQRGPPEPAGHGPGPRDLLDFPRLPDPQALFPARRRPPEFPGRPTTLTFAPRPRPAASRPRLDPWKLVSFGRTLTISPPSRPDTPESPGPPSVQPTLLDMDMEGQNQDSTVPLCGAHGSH
T2 sequence (P80192 whole entry): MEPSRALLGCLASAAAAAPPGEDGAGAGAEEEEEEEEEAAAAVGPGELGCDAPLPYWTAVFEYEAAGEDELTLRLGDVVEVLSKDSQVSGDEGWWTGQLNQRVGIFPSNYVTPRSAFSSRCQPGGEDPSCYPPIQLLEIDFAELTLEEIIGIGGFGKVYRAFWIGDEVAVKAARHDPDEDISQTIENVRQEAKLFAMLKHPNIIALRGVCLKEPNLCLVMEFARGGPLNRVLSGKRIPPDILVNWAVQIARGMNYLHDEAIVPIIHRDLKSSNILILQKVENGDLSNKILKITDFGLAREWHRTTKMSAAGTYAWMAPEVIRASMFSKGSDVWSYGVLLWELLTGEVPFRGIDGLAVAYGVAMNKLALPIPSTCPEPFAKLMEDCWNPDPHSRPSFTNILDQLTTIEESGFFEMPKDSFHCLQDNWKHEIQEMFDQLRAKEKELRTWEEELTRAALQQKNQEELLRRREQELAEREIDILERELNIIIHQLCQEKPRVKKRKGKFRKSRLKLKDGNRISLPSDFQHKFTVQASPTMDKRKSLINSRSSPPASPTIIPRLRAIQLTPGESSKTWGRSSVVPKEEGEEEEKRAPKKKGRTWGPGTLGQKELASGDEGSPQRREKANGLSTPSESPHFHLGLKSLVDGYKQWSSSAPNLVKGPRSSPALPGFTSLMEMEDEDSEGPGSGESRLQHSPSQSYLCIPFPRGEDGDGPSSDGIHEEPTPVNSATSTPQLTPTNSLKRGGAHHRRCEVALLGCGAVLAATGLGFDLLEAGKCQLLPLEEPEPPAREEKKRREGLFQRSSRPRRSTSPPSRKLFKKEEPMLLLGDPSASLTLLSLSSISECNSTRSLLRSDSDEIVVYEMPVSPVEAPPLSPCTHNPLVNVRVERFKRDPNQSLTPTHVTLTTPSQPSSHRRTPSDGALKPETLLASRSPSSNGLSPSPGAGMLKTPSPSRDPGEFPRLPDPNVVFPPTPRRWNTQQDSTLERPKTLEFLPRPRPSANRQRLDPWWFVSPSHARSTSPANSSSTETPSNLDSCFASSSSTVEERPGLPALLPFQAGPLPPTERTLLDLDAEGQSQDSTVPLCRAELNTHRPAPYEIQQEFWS
SRMS, sequence (Q9H3Y6 whole entry): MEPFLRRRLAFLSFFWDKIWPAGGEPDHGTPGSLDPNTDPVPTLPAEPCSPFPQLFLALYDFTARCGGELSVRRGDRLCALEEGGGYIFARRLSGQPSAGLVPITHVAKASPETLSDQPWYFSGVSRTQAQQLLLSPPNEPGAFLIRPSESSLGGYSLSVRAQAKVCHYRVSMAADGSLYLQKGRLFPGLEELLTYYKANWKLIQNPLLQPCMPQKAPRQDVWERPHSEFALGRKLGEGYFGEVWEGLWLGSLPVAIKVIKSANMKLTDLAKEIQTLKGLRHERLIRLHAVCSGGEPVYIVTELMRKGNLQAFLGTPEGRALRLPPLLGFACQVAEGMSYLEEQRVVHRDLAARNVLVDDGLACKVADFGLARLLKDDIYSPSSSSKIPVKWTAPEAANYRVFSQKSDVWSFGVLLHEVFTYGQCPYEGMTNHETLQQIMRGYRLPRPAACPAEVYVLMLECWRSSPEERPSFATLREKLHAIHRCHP
T1 sequence (Q13153 whole entry): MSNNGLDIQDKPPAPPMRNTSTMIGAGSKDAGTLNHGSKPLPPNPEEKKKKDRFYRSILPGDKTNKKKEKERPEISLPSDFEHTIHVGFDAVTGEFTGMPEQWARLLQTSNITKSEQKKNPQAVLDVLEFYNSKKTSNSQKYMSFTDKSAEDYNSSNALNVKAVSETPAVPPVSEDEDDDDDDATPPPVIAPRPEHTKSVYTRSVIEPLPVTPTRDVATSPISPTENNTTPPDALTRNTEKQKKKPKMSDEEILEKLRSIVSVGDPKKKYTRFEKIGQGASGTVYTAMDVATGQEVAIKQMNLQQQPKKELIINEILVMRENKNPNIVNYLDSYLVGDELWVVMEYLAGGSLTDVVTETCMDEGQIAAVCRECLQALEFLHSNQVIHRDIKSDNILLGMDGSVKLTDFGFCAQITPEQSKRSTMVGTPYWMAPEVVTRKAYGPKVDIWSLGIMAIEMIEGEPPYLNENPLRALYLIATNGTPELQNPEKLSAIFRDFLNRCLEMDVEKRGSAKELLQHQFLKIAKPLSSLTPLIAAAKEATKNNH

Structure (SMILES) | remaining binding at 0.05 µM (PAK1) | remaining binding at 0.2 µM (PAK1) | remaining binding at 1 µM (PAK1) | remaining binding at 10 µM (PAK1) | IC50 (MLK1 (MAP3K9)) | remaining binding at 0.05 µM (MLK1 (MAP3K9)) | remaining binding at 0.2 µM (MLK1 (MAP3K9)) | remaining binding at 1 µM (MLK1 (MAP3K9)) | remaining binding at 10 µM (MLK1 (MAP3K9)) | remaining binding at 0.05 µM (MAP3K4) | remaining binding at 0.2 µM (MAP3K4) | remaining binding at 1 µM (MAP3K4) | remaining binding at 10 µM (MAP3K4) | IC50 (SRMS) | remaining binding at 0.05 µM (SRMS) | remaining binding at 0.2 µM (SRMS) | remaining binding at 1 µM (SRMS) | remaining binding at 10 µM (SRMS) | remaining binding at 0.05 µM (MAP4K3) | remaining binding at 0.2 µM (MAP4K3) | also measured
CCCS(=O)(=O)Nc1ccc(F)c(C(=O)c2c[nH]c3ncc(Cl)cc23)c1F [PLX4720] | 93% | 97% | 83% | 22% | > 10 µM | 100% | 100% | 100% | 100% | 100% | 100% | 100% | 65% | 0.00064 µM | 1.9% | 0.55% | 0.05% | 0% | 100% | 95% | remaining binding at 1 µM (MAP4K3): 90%; remaining binding at 10 µM (MAP4K3): 56%; remaining binding at 0.05 µM (MLK2 (MAP3K10)): 100%; remaining binding at 0.2 µM (MLK2 (MAP3K10)): 82%; remaining binding at 1 µM (MLK2 (MAP3K10); read-out: Percent control (1000 nM)): 100%; remaining binding at 10 µM (MLK2 (MAP3K10)): 76%; remaining binding at 0.05 µM (MAP3K1): 96%; remaining binding at 0.2 µM (MAP3K1): 100%; remaining binding at 1 µM (MAP3K1): 92%; remaining binding at 10 µM (MAP3K1): 84%; IC50 (TAOK1; estimated Kd, averaged pointwise estimates, transformed Hill equation, read-out: Calculated estimate of IC50): 7.53 µM; remaining binding at 0.05 µM (TAOK1; read-out: Percent control (50 nM)): 87%; remaining binding at 0.2 µM (TAOK1): 94%; remaining binding at 1 µM (TAOK1): 89%; remaining binding at 10 µM (TAOK1): 65%
CCCS(=O)(=O)Nc1ccc(F)c(C(=O)c2c[nH]c3ncc(-c4ccc(Cl)cc4)cc23)c1F [vemurafenib] | 99% | 98% | 91% | 46% | 14 µM | 100% | 93% | 97% | 41% | 95% | 92% | 87% | 46% | 0.0111 µM | 24% | 9.6% | 0.75% | 0% | 80% | 90% | remaining binding at 1 µM (MAP4K3): 82%; remaining binding at 10 µM (MAP4K3): 24%; remaining binding at 0.05 µM (MLK2 (MAP3K10)): 92%; remaining binding at 0.2 µM (MLK2 (MAP3K10)): 96%; remaining binding at 10 µM (MLK2 (MAP3K10)): 78%; remaining binding at 0.05 µM (MAP3K1): 98%; remaining binding at 0.2 µM (MAP3K1): 84%; remaining binding at 1 µM (MAP3K1): 89%; remaining binding at 10 µM (MAP3K1): 81%; remaining binding at 0.2 µM (TAOK1): 100%; remaining binding at 1 µM (TAOK1): 97%; remaining binding at 10 µM (TAOK1): 79%
